Experimental data published in patent US5137889A, “Dihydropyridine derivatives and process for preparing the same” (Otsuka Pharmaceutical Co., Ltd., priority 1983, dated 1992).
Where two headings read alike, the source gives them in different places.

How the values were obtained:
[1] = target: T1, Calmodulin-cyclic-AMP phosphodiesterase (Bos taurus, UniProt P62157); assay: Calmodulin-cyclic-AMP phosphodiesterase inhibitory activity (presence of calmodulin); format: biochemical, bovine
T1 construct: tissue Amano & Co. (calmodulin only); host or cells: phosphodiesterase: bovine heart, partially purified; calmodulin: bovine brain
From the text: (1) Calmodulin: A calmodulin product manufactured by Amano & Co., which was isolated from the brain of bovine, and purified so as to be considered as a single substance with respect to SDS-page (polyacrylamide gel electrophoresis) method.
(§1) (2) Calmodulin-dependent cyclic-AMP phosphodiesterase (EC 3.1.4.17): An enzyme substance isolated from the heart of bovine and purified partially by a method of modified version of the disclosure in H. C. Ho, T. S. Teo, et al.: "Biochim. Biophys. Acta", 429, 461 (1976).
(§2) (3) 5'-Nucleotidase (EC 3.1.3.5): Grade IV substance (isolated from Crotalus adamanteus venom) manufactured by Sigma & Co.
(§3) (4) Others: Remainder of the reagents used in the test were those of reagent grade chemicals manufactured by Wako Pure-Chemical Industries, Ltd.
(§4) Calmodulin inhibitory activity of each of the test compounds was measured by a method of modified version of the disclosure in T. S. Teo and T. H. Wang: "J. Bio. Chem.", 248, 588 (1973).
(2) Calmodulin: One unit thereof stimulates 0.015 activated unit of cyclic-AMP phosphodiesterase to 50% of the maximum activity of the enzyme.
(§5) (3) 5'-Nucleotidase: One unit thereof hydrolyzes 1.0 micromole of inorganic phosphorus from adnosine 5'-monophosphate per minute at pH 9.0 at 37° C.
(1) Calmodulin-cyclic-AMP phosphodiesterase inhibitory activity:
40 mM of Imidazol, 20 mM of MgCl2, 20 mM of CaC12, 0.008 unit of cyclic-AMP phosphodiesterase, 1.0 unit of calmodulin, 0.2 unit of 5'-nucleotidase and 1.0 ml of 10 mM-tris(hydroxymethyl)aminomethane/HCl buffer solution (pH 7.0) containing 0.5 mM of cyclic-AMP were mixed together, and reacted at 30° C. for 30 minutes. Each of the test compounds was dissolved in methanol or N,N-dimethylformamide as the solvent, provided that the quantity of the solvent was not exceed 2% of the total amount of the mixture. After the reaction was completed, the reaction mixture was ice-cooled, and 0.5 ml each of aqueous solutions of 16.5%-trichloroacetic acid, 1%-thiourea, 3%-ammonium ferrous sulfate were respectively added to the reaction mixture. Further, 0.15 ml of 4.4%-ammonium molibdate solution was added to the mixture and the whole of the mixture was stirred, and was centrifuged at 3,000 r.p.m. for 10 minutes. Then, the centrifuged mixture was allowed to stand at a room temperature for 20 minutes. The OD660 nm (optical density at 660 nm) was measured.

[2] = target: T2, Cyclic-AMP phosphodiesterase (Bos taurus, UniProt P14100); assay: Cyclic AMP phosphodiesterase inhibitory activity (absence of calmodulin, EGTA in place of CaCl2); format: biochemical, bovine; conditions: 1 mM EGTA in place of CaCl2; 3 hours
T2 construct: from tissue; host or cells: bovine heart, partially purified
From the text: as §1, §2, §3, §4, §5
(2) Cyclic AMP phosphodiesterase inhibitory activity:
The reaction was conducted by a method similar to that described in (1) as mentioned above, except that 1 mM of EGTA [ethylene glycol-bis(β-amino ethyl ether)-N,N-tetraacetic acid] was used in place of 20 mM of CaCl2. The reaction was conducted for 3 hours.

[3] = test system: SHR-rats (spontaneously hypertensive rats); conditions: 30 mg/kg p.o.
Description: Systolic blood pressures and heart beat of SHR-rats (spontaneously hypertensive rats) were determined by a "tail cuff method". Thus the test animal was placed in a thermostat chamber (Type: FR-12RS, manufactured by Isuze & Co.) and was warmed at 40° C. for 15 minutes so as to vasodilate the tail arteria, the systolic blood pressures were measured by an electro sphygmomanometer (Type: PE-300, manufactured by Narco-Biosystems, Inc.) and recorded by an ink-writing recorder (Type: RECTI-HORIZ 8s, manufactured by San-Ei Instrument & Co.). The experiments were conducted under non-anesthetized and semi-confinement conditions. The test compound was orally administered forcedly by using a sonde for oral administration. The test compound was suspended in 0.15%-gum arabic powder aqueous solution so as to make the quantity of the test compound to 2.5 ml/kg. The test animal was not fasted, and the systolic blood pressures (mm-Hg) were measured before the administration (hereinafter referred to as "PRE") and after the administration (8, 24, 30, 48, 54 and 72 hours after the administration) of the test compound. The data of systolic blood pressure measured before the administration are shown in absolute value of mmHg, and the data measured after the administration are shown in the differences from the absolute values.

[4] = with calmodulin and CaCl2, pH 7.0, 30° C., 30 minutes, read-out: Calmodulin-cyclic-AMP phosphodiesterase IC50 (converted)

T2 sequence (P14100 1-514 isoform P14100-2): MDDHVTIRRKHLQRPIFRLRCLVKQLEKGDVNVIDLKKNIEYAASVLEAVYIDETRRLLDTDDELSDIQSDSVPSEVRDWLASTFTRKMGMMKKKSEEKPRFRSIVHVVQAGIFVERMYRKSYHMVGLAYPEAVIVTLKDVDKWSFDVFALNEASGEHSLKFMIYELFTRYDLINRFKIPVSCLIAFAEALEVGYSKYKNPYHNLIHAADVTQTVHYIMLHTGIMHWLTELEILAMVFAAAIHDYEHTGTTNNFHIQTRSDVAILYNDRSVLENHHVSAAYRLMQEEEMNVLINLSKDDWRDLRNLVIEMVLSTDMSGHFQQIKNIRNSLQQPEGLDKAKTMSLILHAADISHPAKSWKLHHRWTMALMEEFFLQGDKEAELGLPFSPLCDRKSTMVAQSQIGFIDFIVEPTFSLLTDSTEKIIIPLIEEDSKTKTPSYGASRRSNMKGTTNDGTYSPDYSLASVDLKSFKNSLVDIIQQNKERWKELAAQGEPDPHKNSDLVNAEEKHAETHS

Compound: COC(=O)C1=C(C)NC(C)=C(C(=O)OC/C=C/c2ccc(O)cc2)C1c1ccccc1C(F)(F)F (stereo not drawn) [Example 14]
- IC50 [1, 4]: 12.8 µM

Compound: COC(=O)C1=C(C)NC(C)=C(C(=O)OC/C=C/c2ccccc2)C1c1cccc([N+](=O)[O-])c1 (stereo not drawn) [Test Compound 2, Methyl 3-phenyl-2(E)-propenyl 1,4-dihydro-2,6-dimethyl-4-(3-nitrophenyl)pyridine-3,5-dicarboxylate]
- IC50 [1, 4]: 5.57 µM

Compound: COC(=O)C1=C(C)NC(C)=C(C(=O)OC/C=C/C=C/c2ccc(O)cc2)C1c1cccc([N+](=O)[O-])c1 (stereo not drawn) [Test Compound 3, Methyl 5-(4-hydroxyphenyl)-2(E),4(E)-pentadienyl 1,4-dihydro-2,6-dimethyl-4-(3-nitrophenyl)-pyridine-3,5-dicarboxylate]
- IC50 [1, 4]: 1.73 µM

Compound: COC(=O)C1=C(C)NC(C)=C(C(=O)OC/C=C/c2ccc(O)c(OC)c2)C1c1cccc([N+](=O)[O-])c1 (stereo not drawn) [Test Compound 7, Methyl 3-(3-methoxy-4-hydroxyphenyl)-2(E)-propenyl 1,4-dihydro-2,6-dimethyl-4-(3-nitrophenyl)pyridine-3,5-dicarboxylate]
- IC50 [1, 4]: 10.5 µM

Compound: COC(=O)C1=C(C)NC(C)=C(C(=O)OC/C=C/c2ccc(OC)cc2)C1c1cccc([N+](=O)[O-])c1 (stereo not drawn) [Test Compound 8, Methyl 3-(4-methoxyphenyl)-2(E)-propenyl 1,4-dihydro-2,6-dimethyl-4-(3-nitrophenyl)-pyridine-3,5-dihydrocarboxylate]
- IC50 [1, 4]: 5.64 µM

Compound: COC(=O)C1=C(C)NC(C)=C(C(=O)OC/C=C/c2nnnn2C)C1c1cccc([N+](=O)[O-])c1 (stereo not drawn) [Test Compound 9, Methyl 3-(1-methyl-1,2,3,4-tetrazol-5-yl)-2(E)-propenyl 1,4-dihydro-2,6-dimethyl-4-(3-nitrophenyl)pyridine-3,5-dicarboxylate]
- IC50 [1, 4]: 11.7 µM
- IC50 [2]: 79.2 µM

Compound: COC(=O)C1=C(C)NC(C)=C(C(=O)OC/C=C/c2ccco2)C1c1cccc([N+](=O)[O-])c1 (stereo not drawn) [Test Compound 10, Methyl 3-furyl-2(E)-propenyl 1,4-dihydro-2,6-dimethyl-4-(3-nitrophenyl)pyridine-3,5-dicarboxylate]
- IC50 [1, 4]: 3.54 µM
- IC50 [2]: > 228 µM

Compound: COC(=O)C1=C(C)NC(C)=C(C(=O)OC/C=C/c2ccc(O)c(Cl)c2)C1c1cccc([N+](=O)[O-])c1 (stereo not drawn) [Test Compound 11, Methyl 3-(3-chloro-4-hydroxyphenyl)-2(E)-propenyl 1,4-dihydro-2,6-dimethyl-4-(3-nitrophenyl)pyridine-3,5-dicarboxylate]
- IC50 [1, 4]: 10.6 µM
- IC50 [2]: 200 µM

Compound: COC(=O)C1=C(C)NC(C)=C(C(=O)OC/C=C/c2ccccc2O)C1c1cccc([N+](=O)[O-])c1 (stereo not drawn) [Test Compound 13, Methyl 3-(2-hydroxyphenyl)-2(E)-propenyl 1,4-dihydro-2,6-dimethyl-4-(3-nitrophenyl)-pyridine-3,5-dicarboxylate]
- IC50 [1, 4]: 3.55 µM

Compound: COC(=O)C1=C(C)NC(C)=C(C(=O)OC/C=C/c2ccc(OC(C)=O)cc2)C1c1cccc([N+](=O)[O-])c1 (stereo not drawn) [Test Compound 16, Methyl 3-(4-acetyloxyphenyl)-2(E)-propenyl 1,4-dihydro-2,6-dimethyl-4-(3-nitrophenyl)-pyridine-3,5-dicarboxylate]
- IC50 [1, 4]: 5.92 µM

Compound: COC(=O)C1=C(C)NC(C)=C(C(=O)OCCN2CC=C(c3ccc(C)cc3)CC2)C1c1cccc([N+](=O)[O-])c1 (stereo not drawn) [Test Compound 17, Methyl 2-[4-(4-methylphenyl)-1,2,3,6-tetra-hydropyridyl]ethyl 1,4-dihydro-2,6-dimethyl-4-(3-nitrophenyl)pyridine-3,5-dicarboxylate]
- IC50 [1, 4]: 10.3 µM
- IC50 [2]: > 188 µM

Compound: COC(=O)C1=C(C)NC(C)=C(C(=O)OC/C=C/c2ccc(O)cc2)C1c1ccccc1 (stereo not drawn) [Test Compound 18, Methyl 3-(4-hydroxyphenyl)-2(E)-propenyl 1,4-dihydro-2,6-dimethyl-4-phenylpyridine-3,5-dicarboxylate]
- IC50 [1, 4]: 16.2 µM

Compound: COC(=O)C1=C(C)NC(C)=C(C(=O)OC/C=C/c2ccc(O)cc2)C1c1ccccc1C (stereo not drawn) [Test Compound 19, Methyl 3-(4-hydroxyphenyl)-2(E)-propenyl 1,4-dihydro-2,6-dimethyl-4-(2-methylphenyl)-pyridine-3,5-dicarboxylate]
- IC50 [1, 4]: 13.4 µM

Compound: COC(=O)C1=C(C)NC(C)=C(C(=O)OC/C=C/c2ccc(O)cc2)C1c1ccc(OC)c(OC)c1 (stereo not drawn) [Test Compound 20, Methyl 3-(4-hydroxyphenyl)-2(E)-propenyl 1,4-dihydro-2,6-dimethyl-4-(3,4-dimethoxy-phenyl)pyridine-3,5-dicarboxylate]
- IC50 [1, 4]: 6.67 µM
- IC50 [2]: 62.6 µM

Compound: COC(=O)C1=C(C)NC(COC/C=C/c2ccc(O)cc2)=C(C(=O)OC)C1c1cccc([N+](=O)[O-])c1 (stereo not drawn) [Test Compound 21, Dimethyl 1,4-dihydro-2-[3-(4-hydroxyphenyl)-2(E)-propenyloxymethyl]-6-methyl-4-(3-nitrophenyl)pyridine-3,5-dicarboxylate]
- IC50 [1, 4]: 12.1 µM
- IC50 [2]: > 202 µM

Compound: COC(=O)C1=C(C)NC(C)=C(C(=O)OCC#Cc2cccs2)C1c1cccc([N+](=O)[O-])c1 (stereo not drawn) [Test Compound 22, Methyl 3-(2-thienyl)-2-propynyl 1,4-dihydro-2,6-dimethyl-4-(3-nitrophenyl)pyridine-3,5-dicarboxylate]
- IC50 [1, 4]: 2.43 µM
- IC50 [2]: > 221 µM

Compound: COC(=O)C1=C(C)NC(C)=C(C(=O)OCCN2CCN(CC#Cc3ccccc3)CC2)C1c1cccc([N+](=O)[O-])c1 (stereo not drawn) [Test Compound 23, Methyl 2-[4-(3-phenyl-2-propynyl)-1-piperazinyl]ethyl 1,4-dihydro-2,6-dimethyl-4-(3-nitrophenyl)pyridine-3,5-dicarboxylate]
- IC50 [1, 4]: 14.3 µM
- IC50 [2]: > 179 µM

Compound: COC(=O)C1=C(C)NC(C)=C(C(=O)OC/C=C/c2ccc(O)cc2)C1c1ccc(Cl)cc1Cl (stereo not drawn) [Test Compound 24, Methyl 3-(4-hydroxyphenyl)-2(E)propenyl 1,4-dihydro-2,6-dimethyl-4-(2,4-dichloro-phenyl)pyridine-3,5-dicarboxylate]
- IC50 [1, 4]: 5.02 µM
- IC50 [2]: 30.7 µM

Compound: COC(=O)C1=C(C)NC(C)=C(C(=O)OCCN(C)Cc2ccccc2)C1c1cccc([N+](=O)[O-])c1 (stereo not drawn) [Test Compound 26, Methyl 2-(N-methyl-N-benzylamino)ethyl 1,4-dihydro-2,6-dimethyl-4-(3-nitrophenyl)pyridine-3,5-dicarboxylate, reference compound]
- IC50 [1]: 13 µM

Compound: methyl 3-(4-tetrahydropyranyloxyphenyl)-2(E)-propenyl 1,4-dihydro-2,6-dimethyl-4-(3-nitrophenyl)pyridine-3,5-dicarboxylate [Example 1]
- Blood pressure after the administration, 8 hours (difference from the absolute value before administration) ([3]; 8 hours): -20.3 mm-Hg
- Blood pressure after the administration, 24 hours (difference from the absolute value before administration) [3]: -41.0 mm-Hg
- Blood pressure after the administration, 24 hours (difference from the absolute value before administration) ([3]; listed as 6): +1.8 mm-Hg
- Blood pressure after the administration, 30 hours (difference from the absolute value before administration) [3]: -52.0 mm-Hg
- Blood pressure after the administration, 48 hours (difference from the absolute value before administration) [3]: -26.5 mm-Hg
- Blood pressure after the administration, 54 hours (difference from the absolute value before administration) [3]: -19.8 mm-Hg
- Blood pressure after the administration, 72 hours (difference from the absolute value before administration) ([3]; 72 hours): -12.5 mm-Hg

Compound: methyl 3-[4-(2-tetrahydropyranyloxyphenyl)]-2-propynyl 1,4-dihydro-2,6-dimethyl-4-(3-nitrophenyl)pyridine-3,5-dicarboxylate [Example 3]
- Blood pressure after the administration, 24 hours (difference from the absolute value before administration) [3]: -31.0 mm-Hg
- Blood pressure after the administration, 30 hours (difference from the absolute value before administration) [3]: -30.8 mm-Hg
- Blood pressure after the administration, 48 hours (difference from the absolute value before administration) [3]: -15.6 mm-Hg
- Blood pressure after the administration, 54 hours (difference from the absolute value before administration) [3]: -12.6 mm-Hg
